Results from patent US10202376B2, “Heterocyclic compound” (Takeda Pharmaceutical Company Limited, priority 2014, dated 2019).

Target: T1, Human GRIN1 and human GRIN2B expressing HEK293 cells (Homo sapiens, UniProt Q13224)
T1 construct: host or cells: HEK293
Test: NR2B Ca2+ flux assay
Format: cell-based
Details: 10 μM test compound, glutamic acid/glycine stimulated Fluo-4 fluorescence, FLIPR, read-out: inhibitory rate (@10 μM)
Experimental: Experimental Example 1 NR2B Ca^2+ Flux Assay
Human GRIN1 and human GRIN2B expressing HEK293 cells were purchased from ChanTest. The cells were cultured in a DMEM/F-12 (COSMO BIO, 10-092-CM) medium added with 10% FBS (fetal bovine serum, AusGene), 100 units/mL penicillin, 100 μg/mL streptomycin, 500 μg/mL neomycin, 100 μg/mL Zeocin, 5 μg/mL Blasticidin at 37° C., 5% CO2. The cells were detached from flask with trypsin the day before the assay, suspended in a seeding medium (DMEM (Invitrogen, 31053) added with 10% FBS, 100 units/mL penicillin, 100 μg/mL streptomycin) at 8×10^5 cells/mL, seeded by 25 μL per well in a 384-well plate (Falcon, 356663) at 20000 cells/well, and cultured overnight in an incubator. On the day of the assay, tetracycline (Wako Pure Chemical Industries, Ltd., 209-16561) was diluted with the seeding medium at 2 μg/mL, added at […] to the plate seeded with the cells, and cultured for 2 hr in an incubator. Thereafter, the medium was removed, and the cells were washed with 50 μL/well assay buffer (137 mM NaCl, 4 mM KCl, 1.8 mM CaCl2, 10 mM HEPES (pH 7.2), 10 mM Glucose, 0.1% BSA). Then, a loading buffer (assay buffer added with 2.5 uM Fluo-4AM, 2 mM Amaranth, 1 mM Tartrazine) was added at 25 μL/well, and loading was performed in the incubator for 30 min, and at room temperature for 15 min. A test compound (25 μL) was added, and the cells were stood for 15 min at room temperature. Using FLIPR (Molecular Devices), 25 μL of an assay buffer containing […], 30 μM glycine was added, and the fluorescence signal was measured every 3 seconds for 5 min. The inhibitory activity was calculated as a relative activity value that inhibits 100% of the cumulative value of the fluorescence value of a well added with a buffer free of glutamic acid, glycine, relative to the cumulative value of the fluorescence value of each well.

T1 sequence (Q13224 27-1484, other chains not shown): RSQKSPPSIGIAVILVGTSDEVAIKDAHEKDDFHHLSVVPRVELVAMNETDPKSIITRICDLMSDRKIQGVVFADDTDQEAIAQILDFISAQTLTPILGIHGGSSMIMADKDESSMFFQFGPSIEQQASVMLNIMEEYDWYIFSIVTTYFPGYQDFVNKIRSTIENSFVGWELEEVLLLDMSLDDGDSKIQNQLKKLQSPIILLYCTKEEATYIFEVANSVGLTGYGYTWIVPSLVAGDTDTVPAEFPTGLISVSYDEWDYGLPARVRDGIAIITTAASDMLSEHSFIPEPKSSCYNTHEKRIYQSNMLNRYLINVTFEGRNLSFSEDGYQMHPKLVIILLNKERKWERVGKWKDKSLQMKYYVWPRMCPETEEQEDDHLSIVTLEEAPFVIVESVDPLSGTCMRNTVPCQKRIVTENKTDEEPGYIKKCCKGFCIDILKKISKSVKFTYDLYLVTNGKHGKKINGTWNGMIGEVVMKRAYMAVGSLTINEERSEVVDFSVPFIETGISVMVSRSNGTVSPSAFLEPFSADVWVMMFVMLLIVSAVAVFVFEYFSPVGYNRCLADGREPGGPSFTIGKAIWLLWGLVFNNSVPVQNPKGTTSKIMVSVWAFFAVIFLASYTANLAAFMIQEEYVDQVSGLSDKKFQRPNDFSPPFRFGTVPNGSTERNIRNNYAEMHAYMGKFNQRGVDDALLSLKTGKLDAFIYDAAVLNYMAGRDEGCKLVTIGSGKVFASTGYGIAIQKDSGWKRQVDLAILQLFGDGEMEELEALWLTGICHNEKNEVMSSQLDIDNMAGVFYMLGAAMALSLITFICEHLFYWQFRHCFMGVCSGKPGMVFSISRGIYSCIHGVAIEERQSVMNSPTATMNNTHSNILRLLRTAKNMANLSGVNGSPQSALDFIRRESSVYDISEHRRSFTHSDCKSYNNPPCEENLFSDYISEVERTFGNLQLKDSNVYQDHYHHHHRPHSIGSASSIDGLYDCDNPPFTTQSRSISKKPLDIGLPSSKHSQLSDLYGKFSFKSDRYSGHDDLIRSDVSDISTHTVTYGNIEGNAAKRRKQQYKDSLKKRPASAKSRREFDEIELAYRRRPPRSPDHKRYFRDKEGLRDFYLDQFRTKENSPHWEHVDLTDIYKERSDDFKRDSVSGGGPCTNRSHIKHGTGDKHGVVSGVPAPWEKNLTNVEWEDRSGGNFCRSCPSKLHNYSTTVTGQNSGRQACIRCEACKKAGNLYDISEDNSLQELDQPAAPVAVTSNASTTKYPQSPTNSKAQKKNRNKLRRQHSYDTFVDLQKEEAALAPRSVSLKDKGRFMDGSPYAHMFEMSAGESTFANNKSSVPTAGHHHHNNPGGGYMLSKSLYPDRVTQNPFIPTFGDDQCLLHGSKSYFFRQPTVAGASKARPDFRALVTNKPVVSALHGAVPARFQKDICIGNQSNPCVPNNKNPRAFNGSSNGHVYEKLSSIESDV

Point of comparison: `O=C(Cc1cccc2nccn12)Nc1ccc(C2CC2)cc1` [Example 4, N-(4-cyclopropylphenyl)-2-(imidazo[1,2-a]pyridin-5-yl)acetamide], inhibition at 10 µM 94%. Against it:
- O=C(Cc1cccc2nccn12)Nc1ccc(C(F)(F)F)cc1 [Example 1, 2-(imidazo[1,2-a]pyridin-5-yl)-N-(4-(trifluoromethyl)phenyl)acetamide] — lower, 91%
- COc1ccc(NC(=O)Cc2cccc3nccn23)cc1 [Example 2, 2-(imidazo[1,2-a]pyridin-5-yl)-N-(4-methoxyphenyl)acetamide] — lower, 91%
- CCc1ccc(NC(=O)Cc2cccc3nccn23)cc1 [Example 3, N-(4-ethylphenyl)-2-(imidazo[1,2-a]pyridin-5-yl)acetamide] — the same, 94%
- O=C(Cc1cccc2nccn12)Nc1ccc(OC(F)(F)F)cc1 [Example 5, 2-(imidazo[1,2-a]pyridin-5-yl)-N-(4-(trifluoromethoxy)phenyl)acetamide] — lower, 93%
- O=C(Cc1cccc2nccn12)Nc1ccc(OC(F)F)cc1 [Example 6, N-(4-(difluoromethoxy)phenyl)-2-(imidazo[1,2-a]pyridin-5-yl)acetamide] — lower, 93%
- O=C(Cc1cccc2nccn12)Nc1ccc(Cl)c(F)c1 [Example 7, N-(4-chloro-3-fluorophenyl)-2-(imidazo[1,2-a]pyridin-5-yl)acetamide] — lower, 90%
- COc1ccc(NC(=O)Cc2cccc3nccn23)cc1F [Example 8, N-(3-fluoro-4-methoxyphenyl)-2-(imidazo[1,2-a]pyridin-5-yl)acetamide] — lower, 92%
- O=C(Cc1cccc2nccn12)Nc1cc(F)c(F)c(F)c1 [Example 9, 2-(imidazo[1,2-a]pyridin-5-yl)-N-(3,4,5-trifluorophenyl)acetamide] — lower, 87%
- CCCc1ccc(NC(=O)Cc2cccc3nccn23)cc1 [Example 10, 2-(imidazo[1,2-a]pyridin-5-yl)-N-(4-propylphenyl)acetamide] — lower, 91%
- CCc1ccc(NC(=O)Cc2cccc3nccn23)cc1F [Example 11, N-(4-ethyl-3-fluorophenyl)-2-(imidazo[1,2-a]pyridin-5-yl)acetamide] — the same, 94%
- O=C(Cc1cccc2nccn12)Nc1ccc(C2CC2)c(F)c1 [Example 12, N-(4-cyclopropyl-3-fluorophenyl)-2-(imidazo[1,2-a]pyridin-5-yl)acetamide] — lower, 93%
- O=C(Cc1cccc2nccn12)Nc1ccc(CC(F)F)cc1 [Example 13, N-(4-(2,2-difluoroethyl)phenyl)-2-(imidazo[1,2-a]pyridin-5-yl)acetamide] — lower, 88%
- O=C(Cc1cccc2nccn12)Nc1ccc(OC(F)(F)F)c(F)c1 [Example 14, N-(3-fluoro-4-(trifluoromethoxy)phenyl)-2-(imidazo[1,2-a]pyridin-5-yl) acetamide] — lower, 92%
- Cc1ccc(NC(=O)Cc2cccc3nccn23)cc1F [Example 15, N-(3-fluoro-4-methylphenyl)-2-(imidazo[1,2-a]pyridin-5-yl)acetamide] — lower, 91%
- O=C(Cc1cccc2nccn12)Nc1ccc(I)cc1 [Example 16, 2-(imidazo[1,2-a]pyridin-5-yl)-N-(4-iodophenyl)acetamide] — lower, 91%
- O=C(Cc1cccc2nccn12)Nc1ccc(OC(F)F)c(F)c1 [Example 17, N-(4-(difluoromethoxy)-3-fluorophenyl)-2-(imidazo[1,2-a]pyridin-5-yl)acetamide] — lower, 93%
- CCOc1ccc(NC(=O)Cc2cccc3nccn23)cc1F [Example 18, N-(4-ethoxy-3-fluorophenyl)-2-(imidazo[1,2-a]pyridin-5-yl)acetamide] — lower, 91%
- COc1c(F)cc(NC(=O)Cc2cccc3nccn23)cc1F [Example 19, N-(3,5-difluoro-4-methoxyphenyl)-2-(imidazo[1,2-a]pyridin-5-yl)acetamide] — lower, 91%
- Cc1cnc2cccc(CC(=O)Nc3ccc(C(F)(F)F)cc3)n12 [Example 20, 2-(3-methylimidazo[1,2-a]pyridin-5-yl)-N-(4-(trifluoromethyl)phenyl)acetamide] — lower, 74%
- O=C(Cc1cccc2nccn12)Nc1ccc(F)c(C(F)F)c1 [Example 21, N-(3-(difluoromethyl)-4-fluorophenyl)-2-(imidazo[1,2-a]pyridin-5-yl)acetamide] — lower, 56%
- Cc1cn2c(CC(=O)Nc3ccc(C(F)(F)F)cc3)cccc2n1 [Example 23, 2-(2-methylimidazo[1,2-a]pyridin-5-yl)-N-(4-(trifluoromethyl)phenyl)-acetamide] — lower, 81%
- COc1ccc(NC(=O)Cc2cccc3nccn23)cn1 [Example 24, 2-(imidazo[1,2-a]pyridin-5-yl)-N-(6-methoxypyridin-3-yl)acetamide] — lower, 62%
- O=C(Cc1cccc2nccn12)Nc1ccccc1 [Example 26, 2-(imidazo[1,2-a]pyridin-5-yl)-N-phenylacetamide] — lower, 53%
- O=C(Cc1cccc2nccn12)Nc1ccc(F)cc1F [Example 27, N-(2,4-difluorophenyl)-2-(imidazo[1,2-a]pyridin-5-yl)acetamide] — lower, 66%
- O=C(Cc1cccc2nccn12)Nc1ccc(F)c(F)c1 [Example 29, N-(3,4-difluorophenyl)-2-(imidazo[1,2-a]pyridin-5-yl)acetamide] — lower, 88%
- Cc1cccc(NC(=O)Cc2cccc3nccn23)c1 [Example 30, 2-(imidazo[1,2-a]pyridin-5-yl)-N-(3-methylphenyl)acetamide] — lower, 50%
- N#Cc1ccc(NC(=O)Cc2cccc3nccn23)cc1 [Example 31, N-(4-cyanophenyl)-2-(imidazo[1,2-a]pyridin-5-yl)acetamide] — lower, 78%
- O=C(Cc1cccc2nccn12)Nc1ccc(F)cc1 [Example 32, N-(4-fluorophenyl)-2-(imidazo[1,2-a]pyridin-5-yl)acetamide] — lower, 83%
- O=C(Cc1cccc2nccn12)Nc1ccc(Cl)cc1 [Example 33, N-(4-chlorophenyl)-2-(imidazo[1,2-a]pyridin-5-yl)acetamide] — lower, 92%
- O=C(Cc1cccc2nccn12)Nc1ccc(Oc2ccccc2)cc1 [Example 34, 2-(imidazo[1,2-a]pyridin-5-yl)-N-(4-phenoxyphenyl)acetamide] — lower, 71%
- Cc1ccc(NC(=O)Cc2cccc3nccn23)cc1 [Example 35, 2-(imidazo[1,2-a]pyridin-5-yl)-N-(4-methylphenyl)acetamide] — lower, 90%
- O=C(Cc1cccc2nccn12)Nc1ccc(C(F)(F)F)cn1 [Example 36, 2-(imidazo[1,2-a]pyridin-5-yl)-N-(5-(trifluoromethyl)pyridin-2-yl)acetamide] — lower, 80%
- O=C(Cc1cccc2nccn12)Nc1ccc(C(F)(F)F)cc1Cl [Example 37, N-(2-chloro-4-(trifluoromethyl)phenyl)-2-(imidazo[1,2-a]pyridin-5-yl)acetamide] — lower, 81%
- O=C(Cc1cccc2nccn12)Nc1ccc(OCC(F)(F)F)cc1 [Example 38, 2-(imidazo[1,2-a]pyridin-5-yl)-N-(4-(2,2,2-trifluoroethoxy)phenyl)-acetamide] — lower, 82%
- O=C(Cc1cccc2nccn12)Nc1ccc(C(F)(F)F)c(Cl)c1 [Example 39, N-(3-chloro-4-(trifluoromethyl)phenyl)-2-(imidazo[1,2-a]pyridin-5-yl)acetamide] — lower, 90%
